Data on 14 compounds can be found in PubChem BioAssay (NCI).

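Values below derive from 48-hour exposures of cells grown in 96-well plates, with endpoints linearly interpolated between the two concentrations bracketing the appropriate inhibition level. Here, GI50 denotes the concentration required for 50% inhibition of growth. TGI is the concentration that stops growth completely.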

Test systems include NCI-H522 lung; KM12 colon; HL-60(TB) leukemia; EKVX NSCLC; NCI/ADR-RES ovarian; U251 CNS; NCI-H460 lung; SK-MEL-2 melanoma; MDA-MB-231 breast; UACC-62 melanoma; OVCAR-8 ovarian; RXF 393 renal; HCT-116 colon; MCF7 breast; HCC-2998 colon.
Common to all, as to test: DTP human tumour cell line panel, 48 h

One may read the TGI as the concentration at which net growth stops. A low value points to greater sensitivity of the cells. Consider `Cc1ccc(Nc2nc(=O)c3c([nH]c4ccccc43)s2)cc1`, for which the TGI with NCI-H522 lung is 32.4 µM; in the assay on KM12 colon it was 16.2 µM; in the assay on HL-60(TB) leukemia, 36.5 µM; in the assay on EKVX NSCLC it was 64.2 µM; with NCI/ADR-RES ovarian it was 29.9 µM; in the assay with U251 CNS, 25.5 µM. Also, the TGI in the assay on NCI-H460 lung was 25.7 µM; in the assay on SK-MEL-2 melanoma, 31.3 µM; with MDA-MB-231 breast it was 33.8 µM; in the assay with UACC-62 melanoma, 21 µM; in the assay on OVCAR-8 ovarian it was 28.7 µM.

On to `CSCC(CO)NC(=O)/C=C/c1c(C)[nH]c(=O)[nH]c1=O` (configuration not stated), for which the TGI was 499 µM in the assay with NCI-H522 lung; more than 875 µM in the assay with KM12 colon; more than 875 µM in the assay on RXF 393 renal; more than 875 µM in the assay with HL-60(TB) leukemia; 872 µM in the assay with EKVX NSCLC; more than 875 µM in the assay with NCI/ADR-RES ovarian. In addition, the TGI was more than 875 µM in the assay with U251 CNS; more than 875 µM with HCT-116 colon; more than 875 µM in the assay on NCI-H460 lung; more than 875 µM in the assay on SK-MEL-2 melanoma; more than 875 µM in the assay on UACC-62 melanoma; more than 609 µM with MCF7 breast. The concentration for total growth inhibition (TGI) in the assay on OVCAR-8 ovarian was more than 348 µM; in the assay with HCC-2998 colon, 479 µM.

For `CC(=O)OC1CC(OC2C(O)CC(OC3C(O)CC(OC4CCC5(C)C(CCC6C5CCC5(C)C(C7=CC(=O)OC7)CCC65O)C4)OC3C)OC2C)OC(C)C1OC1OC(CO)C(O)C(O)C1O` (configuration not stated), the TGI was found to be 0.0291 µM in the assay on NCI-H522 lung; 0.31 µM with KM12 colon; 0.101 µM with RXF 393 renal; 0.0827 µM in the assay with HL-60(TB) leukemia; 0.0536 µM in the assay with EKVX NSCLC; 0.0581 µM with NCI/ADR-RES ovarian. For the same compound, the TGI came out at 0.137 µM in the assay on U251 CNS; 0.0472 µM in the assay with HCT-116 colon; 0.0245 µM in the assay with NCI-H460 lung; 0.245 µM in the assay with SK-MEL-2 melanoma; 2.98 µM with MDA-MB-231 breast; 0.334 µM with UACC-62 melanoma. The values for the TGI with MCF7 breast, with OVCAR-8 ovarian and in the assay with HCC-2998 colon were 0.536 µM, 0.139 µM and 0.29 µM, respectively.

Regarding `O=C(Sc1n[nH]c(=O)[nH]c1=O)c1cccc2nc3ccccc3nc12`, the TGI in the assay on KM12 colon, in the assay with RXF 393 renal, in the assay on HL-60(TB) leukemia, in the assay on EKVX NSCLC, in the assay on NCI/ADR-RES ovarian and in the assay with U251 CNS was more than 100 µM throughout. In addition, the TGI in the assay on HCT-116 colon, in the assay on NCI-H460 lung, with SK-MEL-2 melanoma, in the assay on MDA-MB-231 breast, in the assay with UACC-62 melanoma and with MCF7 breast was more than 100 µM in each case. Besides, the TGI in the assay on OVCAR-8 ovarian and in the assay on HCC-2998 colon was more than 100 µM each time.

As a reminder, the GI50 is the concentration at which growth is held to half of that of the control. For the compound `CN(C)c1cccc(OC(=O)NCCCl)c1`, the total growth inhibition concentration (TGI) with NCI-H522 lung, in the assay with KM12 colon, with RXF 393 renal, with HL-60(TB) leukemia, with EKVX NSCLC and with NCI/ADR-RES ovarian was more than 100 µM each time. The TGI in the assay with U251 CNS, with HCT-116 colon, with NCI-H460 lung, in the assay on SK-MEL-2 melanoma, in the assay on UACC-62 melanoma and in the assay with MCF7 breast was more than 100 µM in each case. For the same compound, the TGI in the assay with OVCAR-8 ovarian and with HCC-2998 colon was more than 100 µM throughout. Also, the GI50 with RXF 393 renal is more than 100 µM.

Consider `S=c1[nH]n2c(COc3ccc(Cl)cc3)nnc2s1`, for which the concentration for total growth inhibition (TGI) in the assay with NCI-H522 lung, in the assay with KM12 colon, in the assay on RXF 393 renal, with HL-60(TB) leukemia, with EKVX NSCLC and in the assay with NCI/ADR-RES ovarian was more than 100 µM throughout. In addition, the TGI with U251 CNS, in the assay with HCT-116 colon, in the assay on NCI-H460 lung, in the assay on SK-MEL-2 melanoma, in the assay on MDA-MB-231 breast and in the assay with UACC-62 melanoma was more than 100 µM each time. Moreover, the TGI with MCF7 breast, in the assay on OVCAR-8 ovarian and in the assay on HCC-2998 colon was more than 100 µM in each case.

As for `CC1(C)N=C(c2ccccc2)SC12S[C@@H]1CCCC[C@H]1S2`, the TGI in the assay on NCI-H522 lung, with KM12 colon, in the assay on RXF 393 renal, in the assay on HL-60(TB) leukemia, in the assay on EKVX NSCLC and in the assay with NCI/ADR-RES ovarian was more than 100 µM throughout. For the same compound, the TGI in the assay with U251 CNS, with HCT-116 colon, in the assay on NCI-H460 lung, with SK-MEL-2 melanoma, with MDA-MB-231 breast and with UACC-62 melanoma was more than 100 µM each time. The TGI in the assay on MCF7 breast and in the assay on OVCAR-8 ovarian was more than 100 µM throughout.

In the case of `O=S(O)CCCSSSCCCS(=O)O`, the concentration for total growth inhibition (TGI) in the assay on NCI-H522 lung, in the assay with KM12 colon, with RXF 393 renal, in the assay with HL-60(TB) leukemia, with EKVX NSCLC and with U251 CNS was more than 100 µM throughout. Besides, the TGI in the assay on HCT-116 colon, in the assay on NCI-H460 lung, in the assay with SK-MEL-2 melanoma, with UACC-62 melanoma and in the assay with HCC-2998 colon was more than 100 µM each time.

With `CO/C=C1\OC(=O)C=C1OC`, the TGI in the assay on NCI-H522 lung, in the assay with KM12 colon, in the assay on RXF 393 renal, in the assay with HL-60(TB) leukemia, in the assay on EKVX NSCLC and with NCI/ADR-RES ovarian was more than 100 µM each time. Moreover, the TGI with U251 CNS was more than 31.6 µM; in the assay with HCT-116 colon it was more than 100 µM; in the assay on NCI-H460 lung, more than 100 µM; in the assay on SK-MEL-2 melanoma, more than 100 µM; with UACC-62 melanoma, more than 100 µM; with MCF7 breast, more than 100 µM. The TGI in the assay on OVCAR-8 ovarian and in the assay on HCC-2998 colon was more than 100 µM throughout.

For `c1ccc2c(c1)SP1Sc3ccccc3P21` (configuration not stated), the TGI in the assay on NCI-H522 lung, in the assay on KM12 colon, with RXF 393 renal, in the assay on HL-60(TB) leukemia, in the assay with EKVX NSCLC and in the assay on NCI/ADR-RES ovarian was more than 100 µM in each case. Also, the TGI in the assay with U251 CNS, with HCT-116 colon, with NCI-H460 lung, in the assay on SK-MEL-2 melanoma, in the assay on UACC-62 melanoma and in the assay on MCF7 breast was more than 100 µM in each case. Besides, the TGI with OVCAR-8 ovarian and with HCC-2998 colon was more than 100 µM in each case.

For `Cc1cccc2c1Sc1ccccc1C2NC(=O)CN(C)C` (configuration not stated), the TGI with RXF 393 renal, in the assay on HL-60(TB) leukemia, with EKVX NSCLC, in the assay on U251 CNS, with HCT-116 colon and with NCI-H460 lung was more than 100 µM in each case. Also, the TGI with UACC-62 melanoma, with OVCAR-8 ovarian and in the assay with HCC-2998 colon was more than 100 µM throughout.

Take `c1csc(-c2ccc(CNc3c4ccccc4nc4ccccc34)cc2)c1`: the GI50 was 1.25 µM in the assay with RXF 393 renal; 1.45 µM with HL-60(TB) leukemia; 2.11 µM in the assay on SK-MEL-2 melanoma; 6.74 µM in the assay with UACC-62 melanoma; 1.53 µM with HCC-2998 colon. Besides, the total growth inhibition concentration (TGI) came to 2.73 µM in the assay with RXF 393 renal; 3.28 µM in the assay with HL-60(TB) leukemia; 4.79 µM in the assay on SK-MEL-2 melanoma; 27 µM in the assay on UACC-62 melanoma; 3.01 µM in the assay on HCC-2998 colon.

With `CN(c1ccccc1)c1nc(=[N+]2CCCC2)ss1`, the TGI was more than 100 µM with KM12 colon; 8.85 µM in the assay with RXF 393 renal; more than 100 µM in the assay on HL-60(TB) leukemia; more than 100 µM in the assay with EKVX NSCLC; more than 100 µM in the assay on U251 CNS; more than 100 µM in the assay on HCT-116 colon. For the same compound, the TGI in the assay with NCI-H460 lung, in the assay with SK-MEL-2 melanoma, in the assay on UACC-62 melanoma, with OVCAR-8 ovarian and with HCC-2998 colon was more than 100 µM in each case.

Consider `NNC(=O)CCc1ccc2ccc3ccccc3c2c1`, for which the concentration for total growth inhibition (TGI) with NCI-H522 lung is more than 100 µM; in the assay with KM12 colon it was more than 100 µM; in the assay with RXF 393 renal it was more than 100 µM; with HL-60(TB) leukemia it was more than 100 µM; in the assay on EKVX NSCLC, 97.9 µM; in the assay with NCI/ADR-RES ovarian, more than 100 µM. The TGI in the assay on U251 CNS, with HCT-116 colon, in the assay on NCI-H460 lung, in the assay on SK-MEL-2 melanoma, in the assay on MDA-MB-231 breast and with UACC-62 melanoma was more than 100 µM throughout. Further, the TGI with MCF7 breast, with OVCAR-8 ovarian and in the assay on HCC-2998 colon was more than 100 µM each time.
